Test results: BindingDB's records for patent US20240409542 (Sitryx Therapeutics, 2024)

Molecular target: Pyruvate kinase PKM (Homo sapiens, UniProt P14618)
Test: Activation Assay Measuring In Vitro Activation of Recombinant Human PKM2
Description: Human PKM2 was diluted into Assay Buffer comprising 50 mM imidazole, 50 mM KCl, 7 mM MgCl2, 0.01% Tween20, 0.05% BSA (pH 7.2) to a final concentration of 5 pM. Enzyme-Assay Buffer mix was dispensed into a 384-well shallow-well white-walled plate (PerkinElmer) and Test Compounds added by acoustic dispense (Echo , Labcyte Inc.). […] Kinase-Glo Plus reagent was added to each well and the plates incubated for a further 15 minutes on an orbital shaker in the dark (300 rpm, 26° C.) before luminescence measurement on a plate reader (PHERAstar FSX, BMG Labtech).

Sequence of Pyruvate kinase PKM (P14618 whole entry): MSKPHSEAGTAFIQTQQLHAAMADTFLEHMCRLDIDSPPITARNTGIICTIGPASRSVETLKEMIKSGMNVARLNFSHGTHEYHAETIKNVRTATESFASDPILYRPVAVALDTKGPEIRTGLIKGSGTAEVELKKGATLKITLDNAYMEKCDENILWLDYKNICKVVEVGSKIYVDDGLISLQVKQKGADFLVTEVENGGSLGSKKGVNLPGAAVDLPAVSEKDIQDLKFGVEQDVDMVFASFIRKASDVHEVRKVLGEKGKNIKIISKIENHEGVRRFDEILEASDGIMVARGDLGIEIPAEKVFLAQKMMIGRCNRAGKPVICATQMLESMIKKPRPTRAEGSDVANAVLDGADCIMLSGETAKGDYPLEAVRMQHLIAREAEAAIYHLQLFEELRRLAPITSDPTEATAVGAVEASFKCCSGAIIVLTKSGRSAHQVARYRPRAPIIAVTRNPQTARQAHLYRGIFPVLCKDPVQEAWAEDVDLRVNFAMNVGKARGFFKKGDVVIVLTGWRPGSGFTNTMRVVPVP

Cn1c2c(c3cnn(Cc4cccc(C(C)(C)O)c4)c(=O)c31)CCN(S(C)(=O)=O)C2 [US20240409542, Example 33]
EC50: 354 nM
